Test system: RBCs of healthy whole blood
Assay: RBC deformability (LORRCA elongation index), ex vivo TBHP oxidation of healthy whole blood
Format: cell-based, human
Details: for EI over vehicle control, ½ EImax and EImax: healthy donor 2, single amino acid treatments, in words
From the text: Whole blood from healthy African American and/or Hispanic donors was obtained from Research Blood Components, LLC based on the following donor selection criteria: Adult age (between 18 and 50 years), normal BMI (<30), and absence of other confounding clinical conditions. Whole blood from SCD donors were obtained from BioIVT based on the following donor selection criteria: Patients with genotypes HbSS, HbSC, HbS/β^0 and at least 1-2 months gap since last blood transfusion. Whole blood was shipped on ice on the same day as blood draw. Upon receipt, the blood sample was aliquoted and stored in the refrigerator until used for studies.
RBC deformability measurements were conducted with the Laser Optical Rotational Red Cell Analyzer (LORRCA) from RR Mechatronics in a temperature-controlled environment (37° C.). Briefly, an even layer of RBCs suspended in polyvinylpyrrolidone (PVP) is subjected to shear stress gradient (0.3 to 30 Pa) through two concentric cylinders and the resulting changes in RBC shape or deformability are measured by a laser beam diffraction pattern. The captured images of RBC shape in response to increasing shear stress are then analyzed by the LORRCA program to calculate Elongation Index (EI).
Healthy RBCs have higher deformability≥0.5 EI and SCD RBCs have lower deformability or EI values as studied by LORRCA ektacytometry in the field. […] The induced hemolysis model in this disclosure involves use of tert-butyl hydroperoxide (TBHP) to lower EI of RBCs.
The ex vivo hemolysis study disclosed here involves overnight treatment of whole blood with vehicle as a control and specific amino acids followed by rapid oxidation (5 min) with TBHP. Method for oxidation of whole blood with tert-butyl hydroperoxide has been used in prior literature (Diederich L, et al, Front Physiol. 2018 May 11; 9:332). RBC deformability or shape changes are then measured with LORRCA ektacytometry.
Whole blood aliquots stored in the fridge were brought up to room temperature while gently shaking on a rocker at low speed for an hour to ensure gradual and uniform suspension of red blood cells prior to deformability measurements. Vehicle control used in the study was 1× Dulbecco's […]) and amino acids disclosed herein were added (at either final […] or 2.5 mM concentration as indicated) to corresponding vehicle and amino acid treatment conditions. The samples were then incubated overnight at 37° C. Next day, 25 μL of whole blood was taken from each treatment condition and added to 5 mL Elon ISO viscous solution from RR Mechatronics. The sample was inverted 15-20 times to ensure proper mixing of the treated RBCs with the Elon ISO solution followed by loading the sample on LORRCA and capturing RBC deformability or shape measurements over the applied shear gradient. The remaining whole blood treatments were returned to incubator (37° C.) until deformability measurements were completed for all treatments. To the remaining whole blood treatment samples, TBHP solution (5.0-6.0 M in Decane, Sigma) was added at 2.5 mM final concentration from a 100 mM freshly prepared stock and incubated for further 5 min at 37° C. 25 μL of this TBHP-treated sample was immediately removed at the end of the 5 min incubation and added to the Elon ISO solution for RBC deformability measurement after oxidation. Included in the Tables 13-15 are EI measurements at ½ EImax shear stress 1.69 Pa and EImax shear stress 30 Pa from these studies and FIG. 1 captures EI measurements for all shear stress points for the indicated treatment conditions.

Row | SMILES | effectiveness among all treatment groups (EI and fold change relative to vehicle) (healthy donor 2, in words) | EI over vehicle control, ½ EImax and EImax
1 | NC(=O)CC[C@H](N)C(=O)O [Glutamine] | least effective | higher than the vehicle
2 | N=C(N)NCCC[C@H](N)C(=O)O [Arginine] |  | higher than the vehicle
3 | CC(=O)N[C@@H](CS)C(=O)O [N-Acetyl Cysteine, N-acetylcysteine] |  | higher than the vehicle
